Biological target: T1, NTRK1 (TRKA) (Homo sapiens, UniProt P04629)
T1 construct: purchased Thermo Fisher Scientific (Life Technologies) SelectScreen
Experiment: SelectScreen Z'LYTE
Type: biochemical
Method in brief: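 SelectScreen broad panel; activity (Z'LYTE, Adapta) plus binding formats. ATP: Km app for CSF1R Z'LYTE; 10 for CAMK1 Adapta. Readout = % per kinase.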

T1 sequence (P04629 33-796): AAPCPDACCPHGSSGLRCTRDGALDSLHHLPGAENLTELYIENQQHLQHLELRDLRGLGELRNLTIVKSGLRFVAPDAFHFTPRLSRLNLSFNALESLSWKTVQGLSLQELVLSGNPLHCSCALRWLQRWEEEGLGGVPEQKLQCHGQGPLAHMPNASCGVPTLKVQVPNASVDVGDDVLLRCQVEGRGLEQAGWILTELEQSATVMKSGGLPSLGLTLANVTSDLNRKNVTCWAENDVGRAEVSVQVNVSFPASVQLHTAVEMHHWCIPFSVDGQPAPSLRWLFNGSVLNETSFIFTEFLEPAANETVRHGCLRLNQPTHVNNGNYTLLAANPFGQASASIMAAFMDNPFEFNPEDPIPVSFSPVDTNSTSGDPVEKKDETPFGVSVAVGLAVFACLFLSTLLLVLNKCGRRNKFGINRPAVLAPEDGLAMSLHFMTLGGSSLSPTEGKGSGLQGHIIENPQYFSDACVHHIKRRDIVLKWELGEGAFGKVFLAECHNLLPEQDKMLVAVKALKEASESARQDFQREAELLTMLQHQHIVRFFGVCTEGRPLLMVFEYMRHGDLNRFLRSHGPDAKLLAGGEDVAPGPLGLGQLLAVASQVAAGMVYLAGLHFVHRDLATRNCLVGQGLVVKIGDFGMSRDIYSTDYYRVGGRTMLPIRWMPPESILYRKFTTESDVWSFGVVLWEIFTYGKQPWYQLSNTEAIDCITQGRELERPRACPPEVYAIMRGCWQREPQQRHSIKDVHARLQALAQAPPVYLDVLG

Molecule `CN(C(=O)CN1CCOCC1)c1ccc2sc3c(-c4cccc5c(=O)cc(N6CC7CCC(C6)O7)oc45)cccc3c2c1` [NU5455] has an inhibition at 1 µM of 1.3%.

— article PMC6934184, “Selective DNA-PKcs inhibition extends the therapeutic index of localized radiotherapy and chemotherapy” (The Journal of Clinical Investigation, 2019)
